In patent US20260130896A1, “COMPOSITIONS AND METHODS FOR DELIVERY OF OPHTHALMOLOGICAL ACTIVES” (ADS Therapeutics LLC, priority 2023, published 2026):

Tests used:
Assay type in all cases: physicochemical
[1] = Solubility of lotilaner in exemplary formulations
From the text: (§1) Time (min) % Mobile Phase A % Mobile Phase B

[2] = Solubility of axitinib in exemplary formulations
Description: Mobile phase A: 0.05% TFA-H2O
Mobile phase B: 0.05% TFA-Acetonitrile
Flow rate: 1.0 mL/min Wavelength: 362 nm
Injection volume: 30 μL Column temperature: 40° C.

[3] = Solubility of ivermectin (CBT-273) in exemplary formulations
Description: The obtained mixture was filtered through 0.22 μm filter and the filtrated solution was analyzed by GC.
Shim-pack GIST C18 5 μm, 4.6 (ID) mm×250 mm (L), 5 μm Mobile phase: Acetonitrile: Methanol: Water=55:35:10 (v:v:v) Flow rate: 1.0 mL/min Wavelength: 214 nm Injection volume: 10 μL Column temperature: 45° C.

[4] = Solubility of Acoltremon (AR-15512) in exemplary formulations
From the text: as §1

[5] = Solubility of aceclidine in exemplary formulations; details: for Aceclidine solubility: Unsaturated
Description: An appropriate amount of aceclidine was dissolved in various MCT (to obtain a mixed solution), then SFA (F6H8 or F4H5) was added to the solution in the indicated proportions and the solution was mixed well with magnetic stirring.

[6] = Stability of aceclidine in F6H8; details: dissolved in F6H8, 25° C., 1, 3, 6, 9 and 12 months
Description: Aceclidine is dissolved in F6H8 as described in Example 17. The level of aceclidine is measured by the GC method at 25° C. at 1, 3, 6, 9 and 12 months. The aceclidine in the formulation is defined as stable if the level is maintained between 90-110% of the original level.

[7] = Solubility of aceclidine in F6H8, MCT and 10% MCT in F6H8 by GC; details: GC method
Description: 5 mg aceclidine was added into a PP tube, 1 ml of F6H8 was added, the PP tube was shaken for about 5 minutes and aceclidine was completely dissolved in the solution. Further 18 mg aceclidine was added, and shaking was continued until no insoluble substance was found. […] The phenomenon disappeared after re-shaking.
The above formulations were centrifuged and the supernatants filtered through 0.45 micron filters without further dilution. One sample was prepared from each solvent for GC analysis.
The GC protocols and parameters are listed below:
Injection Volume: 0.5 ul (Direct injection)
Detector Temp (FID): 300° C.
Gradient: 70° C. (hold 2 min)→12° C./min→280° C. (hold 7 min)
20 mg aceclidine was added into a PP tube, and 1 ml MCT was added. The PP tube was shaken for about 5 minutes and the resulting solution became clear. Further 40 mg of aceclidine was added. The PP tube was shaken again. […] The phenomenon disappeared after re-shaking. A small sample was taken and solubility was determined according to the GC method described in Example 17.
Sample preparation was prepared and analyzed based on the protocols described in Examples 17 and 18.

[8] = Solubility of lifitegrast in exemplary formulations
Description: Chromatographic column: Agilent ZORBAX SB-C18, 4.6*250 mm, 5 μm Mobile phase A: 0.1% Phosphoric Acid-H2O Mobile phase B: Acetonitrile Flow rate: 1.0 mL/min Wavelength: UV/220 nm Injection volume: 10 μL Column temperature: 35° C.
Since the auxiliary peaks of MCM and MC8-2 overlapped with the main peaks in the above gradient method, the analytical methods for MCM and MC8-2 were adjusted as follows: Chromatographic column: Agilent ZORBAX SB-C18, 4.6*250 mm, 5 μm Mobile phase A: 0.1% Phosphoric Acid-H2O Mobile phase B: Acetonitrile Flow rate: 1.0 mL/min Wavelength: UV/220 nm Injection volume: 10 μL Column temperature: 35° C.

Q: What does the source list for `Cc1cc(C2=NO[C@@](c3cc(Cl)c(Cl)c(Cl)c3)(C(F)(F)F)C2)sc1C(=O)NCC(=O)NCC(F)(F)F` [Lotilaner, lotilaner]?
A: Lotilaner solubility ([1]; 10% Captex 300/90% F6H8, RT): 1.21 mg/g; Lotilaner solubility ([1]; 10% Captex 8000/90% F6H8, RT): 3.47 mg/g; Lotilaner solubility ([1]; 10% MCT/90% F6H8, RT): 2.7 mg/g; Lotilaner solubility ([1]; 20% MCT/80% F6H8, RT): 5.42 mg/g; Lotilaner solubility ([1]; 100% Captex 300 (Unsaturated), RT): > 11.32 mg/g; Lotilaner solubility ([1]; 100% Captex 8000 (Unsaturated), RT): > 29.04 mg/g; Lotilaner solubility ([1]; 100% MCT (Unsaturated), RT): > 25.47 mg/g

Q: What does the source list for `CNC(=O)c1ccccc1Sc1ccc2c(/C=C/c3ccccn3)n[nH]c2c1` [Axitinib]?
A: Axitinib Saturated solubility ([2]; 100% Captex 300, RT): 0.022 mg/g; Axitinib Saturated solubility ([2]; 100% Captex 355, RT): 0.03 mg/g; Axitinib Saturated solubility ([2]; 100% Captex 8000, RT): 0.1 mg/g

Q: Which results are given for ivermectin [Ivermectin (CBT-273)]?
A: Ivermectin (CBT-273) Saturated solubility ([3]; 10% Captex 300/90% F6H8, RT): 1.35 mg/g; Ivermectin (CBT-273) Saturated solubility ([3]; 10% Captex 355/90% F4H5, RT): 0.61 mg/g; Ivermectin (CBT-273) Saturated solubility ([3]; 10% Captex 355/90% F6H8, RT): 0.46 mg/g; Ivermectin (CBT-273) Saturated solubility ([3]; 10% Captex 8000/90% F6H8, RT): 1.36 mg/g; Ivermectin (CBT-273) Saturated solubility ([3]; 20% Captex 355/80% F4H5, RT): 3.03 mg/g; Ivermectin (CBT-273) Saturated solubility ([3]; 20% Captex 355/80% F6H8, RT): 3.87 mg/g; Ivermectin (CBT-273) Saturated solubility ([3]; 100% Captex 355, RT): 26.51 mg/g; Ivermectin (CBT-273) Saturated solubility ([3]; 100% Captex 8000, RT): 34.62 mg/g; Ivermectin (CBT-273) Saturated solubility ([3]; 100% Captex ® 300, RT): 27.91 mg/g; Ivermectin (CBT-273) Saturated solubility ([3]; 100% F4H5, RT): 0.12 mg/g; Ivermectin (CBT-273) Saturated solubility ([3]; 100% F6H8, RT): 0.04 mg/g

Q: With `COc1ccc(NC(=O)[C@@H]2C[C@H](C)CC[C@H]2C(C)C)cc1` [Acoltremon (AR-15512), (1R,2S,5R)—N-(4-methoxyphenyl)-5-methyl-2-(1-methylethyl) cyclohexanecarboxamide] as the compound, how does the “Acoltremon (AR-15512) Saturated solubility” value (“Acoltremon” below) ([4]; 10% Captex 170/90% F4H5, RT) read?
A: 0.21 mg/g

Q: What about the “Acoltremon” value ([4]; 10% Captex 200P / 90% F4H5, RT) of the same compound?
A: 0.36 mg/g

Q: And the “Acoltremon” value ([4]; 10% Captex 200P/90% F6H8, RT)?
A: 0.36 mg/g

Q: And the “Acoltremon” value ([4]; 10% Captex 355/90% F6H8, RT)?
A: 0.7 mg/g

Q: And the “Acoltremon” value ([4]; 10% MCT/90% F4H5, RT)?
A: 0.28 mg/g

Q: What about the “Acoltremon” value ([4]; 10% MCT/90% F6H8, RT) of the same compound?
A: 0.29 mg/g

Q: And the “Acoltremon” value ([4]; 20% Captex 170/80% F4H5, RT)?
A: 0.42 mg/g

Q: What about the “Acoltremon” value ([4]; 20% Captex 170/80% F6H8, RT) of the same compound?
A: 0.43 mg/g

Q: What about the “Acoltremon” value ([4]; 20% Captex 200P / 80% F4H5, RT) of the same compound?
A: 0.66 mg/g

Q: What about the “Acoltremon” value ([4]; 20% Captex 200P / 80% F6H8, RT) of the same compound?
A: 0.53 mg/g

Q: What about the “Acoltremon” value ([4]; 20% MCT/80% F4H5, RT) of the same compound?
A: 0.55 mg/g

Q: And the “Acoltremon” value ([4]; 20% MCT/80% F6H8, RT)?
A: 0.55 mg/g

Q: What about the “Acoltremon” value ([4]; 100% Captex 170, RT) of the same compound?
A: 2.03 mg/g

Q: What about the “Acoltremon” value ([4]; 100% Captex 200P, RT) of the same compound?
A: 3.21 mg/g

Q: And the “Acoltremon” value ([4]; 100% Captex 8000, RT)?
A: 1.84 mg/g

Q: And the “Acoltremon” value ([4]; 100% F4H5, RT)?
A: 0.064 mg/g

Q: And the “Acoltremon” value ([4]; 100% F6H8, RT)?
A: 0.055 mg/g

Q: What about the “Acoltremon” value ([4]; 100% MCT, RT) of the same compound?
A: 3.12 mg/g

Q: With `CC(=O)OC1CN2CCC1CC2` (stereo not shown) [Aceclidine, aceclidine] as the compound, how does the “aceclidine concentration that is stable and uniform” value ([5]; 10% Captex 355/F6H8, RT) read?
A: 1.5%-2% is stable

Q: What about the Aceclidine solubility ([5]; 10% Captex 355/F6H8, RT) of the same compound?
A: > 21.4(Unsaturated), mg/g

Q: What about the “aceclidine concentration that is stable and uniform” value ([5]; 10% Captex 8000/F6H8, RT) of the same compound?
A: 2% is stable and

Q: What about the Aceclidine solubility ([5]; 10% Captex 8000/F6H8, RT) of the same compound?
A: > 17.0(Unsaturated), mg/g

Q: And the Aceclidine solubility ([5]; 10% MCT/90% F6H8, RT)?
A: > 17.0(Unsaturated) mg/g

Q: What about the Aceclidine solubility ([5]; 100% Captex 300, RT) of the same compound?
A: > 66.7(Unsaturated) mg/g

Q: And the Aceclidine solubility ([5]; 100% Captex 355, RT)?
A: > 203.4(Unsaturated) mg/g

Q: And the Aceclidine solubility ([5]; 100% Captex 8000, RT)?
A: > 164.0(Unsaturated) mg/g

Q: What about the Aceclidine solubility ([5]; 100% MCT, RT) of the same compound?
A: > 320.9(Unsaturated) mg/g

Q: And the “stability (level maintained between 90-110% of the original level)” value [6]?
A: remains stable

Q: And the “solubility of aceclidine in 10% MCT in F6H8” value [7]?
A: around 2 % (w/v)

Q: What about the “solubility of aceclidine in F6H8” value [7] of the same compound?
A: around 1.5 % (w/v)

Q: And the “solubility of aceclidine in MCT” value [7]?
A: around 5 % (w/v)

Q: Which results are given for `CS(=O)(=O)c1cccc(C[C@H](NC(=O)c2c(Cl)cc3c(c2Cl)CCN(C(=O)c2ccc4ccoc4c2)C3)C(=O)O)c1` [Lifitegrast, lifitegrast]?
A: Lifitegrast Saturated solubility ([8]; 10% MCT/90% F6H8, RT): 0 mg/g; Lifitegrast Saturated solubility ([8]; 20% MCT/80% F6H8, RT): 0 mg/g; Lifitegrast Saturated solubility ([8]; 50% MCT/50% F6H8, RT): 0.004 mg/g; Lifitegrast Saturated solubility ([8]; 100% Captex 300, RT): 0.28 mg/g; Lifitegrast Saturated solubility ([8]; 100% Captex 355, RT): 0.27 mg/g; Lifitegrast Saturated solubility ([8]; 100% Captex 8000, RT): 0.56 mg/g
